Experimental data from US5189046A, “Protein kinase C modulators” (Nova Pharmaceutical Corporation, priority 1991, dated 1993).
Where a name gives a salt, the structure may show the parent alone. Read-outs that look alike come from different tables or passages of the source.

What was measured:
[1] = system: protein kinase C from mouse brains; assay: 3H-Phorbol dibutyrate binding (inhibition of binding of phorbol ester to protein kinase C); settings: for IC50: IC50 determined with program EBDA
Description: The ability of active compounds to inhibit the binding of phorbol ester to protein kinase C from mouse brains was measured as follows. Mouse brains were homogenized in ice-cold 50 mM Tris buffer, pH 7.4, containing 0.5 mM CaCl2, in a 15 mL Dounce homogenizer with 10 gentle strokes. The homogenate was centrifuged at 100,000×g for 1 hour at 4° C. The pellets were resuspended in 25 mL of the same ice-cold buffer and protein concentration was adjusted to 0.4 mg/mL. To each binding tube was added […] of the buffer, […] of [20-^3 H]Phorbol 12,13-dibutyrate, […] final concentration in assay, […] of test drug or displacing ligand, 50 uL of 50 mM Tris, pH 7.4 at 25° C. containing 1% bovine serum albumin, and […] enzyme preparation. Tubes were incubated at 37° C. for 30 minutes, then terminated by filtration onto Whatman GF/B glass fiber filters followed by washing with 2 mL ice-cold 50 mM Tris, pH 7.4, four times. Nonspecific binding was defined as that binding occurring in the presence of 1 mM phorbol ester. Percent inhibition was determined for each inhibitor candidate, and IC50 values were determined using the computer program "EBDA".

[2] = biological target: Protein kinase C from mouse brain; assay: Inhibition of PKC phosphorylation of histone; assay type: biochemical
Description: Protein kinase C from mouse brain was used in the screening protocol since it contains several isozymes of the enzyme. The tissue was prepared by homogenizing two mouse brains minus the cerebelli in 5 ml of 25 mM Tris-HCl,pH 7.4, containing 2 mM ethylenediamine tetraacetic acid (EDTA) and 1 mM ethylene glycol tetraacetic acid (EGTA), using a polytron at setting 5 for 15 seconds. The homogenate was centrifuged for 1 hour at 50,000×g at 4° C. The supernatant was used as the source of enzyme. The standard reaction mixture (250 μl) contained 20 mM Tris-HCl,pH 7.5, 10 mM Mg (CH3 COO)2, 400 μM CaCl2, 0.1 mM EGTA, […] [γ-^32 P] ATP (1200 cpm/pmol), 100 μg/ml phosphatidylserine, 10 μM histone, 1 μM phorbol 12-myristate-13-acetate, 10 μl enzyme preparation and 25 μl water or test drug. The mixture was incubated at 30° C. for 5 minutes. Mixtures were removed to an ice-bath, a 50 μl aliquot of each was added to Whatman P81 paper and washed in 10% TCA for 20 minutes. The paper was then washed with ethanol, followed by ethyl ether and finally air dryed. PKC activity was quantitated by liquid scintillation counting.

[3] = system: Protein kinase A catalytic subunit; assay: Inhibition of protein kinase A phosphorylation of histone; assay type: biochemical; settings: for PKA percent inhibition (phosphorylation of histone): percent inhibition at the maximum concentration tested 100 μM
Description: Protein kinase A activity was determined as follows. Protein kinase A catalytic subunit was purchased from Sigma Chemical Company. […] Incubation was at 30° C. for 5 minutes, then the assay was completed as described for protein kinase C above.

[4] = mouse brain PKC, histone, 30° C., 5 minutes, read-out: PKC IC50 (phosphorylation of histone)
[5] = text summary of Table IV, read-out: IC50, inhibition of phosphorylation by PKC

Structure (SMILES)	% inhibition @ 100 μM (3H-phorbol dibutyrate binding) ([1]; dihydrochloride) [%]	IC50 ([1]; dihydrochloride) [µM]	IC50 [2, 4] [µM]	IC50 [2, 5] [µM]	PKA percent inhibition (phosphorylation of histone) [3] [%]	% inhibition @ 100 μM (3H-phorbol dibutyrate binding) [1] [%]	IC50 [1] [µM]	IC50 ([3]; reference standards only, read-out: PKA IC50 (phosphorylation of histone)) [µM]
CCCCCCCCCCCCC(=O)N1CCCCC1CNC(=O)[C@@H](N)CCCCN (stereo partly shown) [2,6-diamino-N-([1-(1-oxotridecyl)-2-piperidinyl]methylhexana] [2,6-diamino-N-([1-(1-oxotridecyl)-2-piperidinyl]methylhexanamidedihydrochloride]	47	133	–	–	–	–	–	–
CCCCCCCCCCCCC(=O)N1CCCCC1CNC(=O)[C@@H](N)Cc1c[nH]cn1 (stereo partly shown) [2-Amino-N-([1-(1-oxotridecyl)-2-piperidinyl]methyl)-3-(1H-imidazol-4-yl)propanamide dihydrochloride]	–	–	60	–	0	28	343	–
CCCCCCCCCCCCC(=O)N1CCCCC1CNC(=O)CN.Cl (stereo not shown) [2-Amino-N-([1-(1-oxotridecyl)-2-piperidinyl]methyl)ethanamide hydrochloride]	–	–	51	–	0	21	–	–
CCCCCCCCCCCCC(=O)N1CCCCC1CNC(=O)[C@H](C)N (stereo partly shown) [2-Amino-N-([1-(1-oxotridecyl)-2-piperidinyl]methyl)propanamide hydrochloride]	–	–	52	–	0	49	–	–
CCCCCCCCCCCCC(=O)N1CCCCC1CNC(=O)[C@@H](N)CC(=O)OCc1ccccc1 (stereo partly shown) [3-Amino-4-oxo-4-[([1-(1-oxotridecyl)-2-piperidinyl]methyl)amino]butanoic acid phenylmethyl ester hydrochloride]	–	–	92	92	0	2	–	–
CCCCCCCCCCCCC(=O)N1CCCCC1CNC(=O)[C@@H](N)CCC(N)=O (stereo partly shown) [4-Amino-5-oxo-5-[([1-(1-oxotridecyl)-2-piperidinyl]methyl)amino]pentanamide hydrochloride]	–	–	72	–	0	17	–	–
CCCCCCCCCCCCC/C=C/[C@@H](O)[C@@H](N)CO [Sphingosine, reference compound]	–	–	15	–	88	–	–	–

Further lines, results first:

% inhibition @ 100 μM (3H-phorbol dibutyrate binding) ([1]; dihydrochloride) [%]	IC50 ([1]; dihydrochloride) [µM]	IC50 [2, 4] [µM]	IC50 [2, 5] [µM]	PKA percent inhibition (phosphorylation of histone) [3] [%]	% inhibition @ 100 μM (3H-phorbol dibutyrate binding) [1] [%]	IC50 [1] [µM]	IC50 ([3]; reference standards only, read-out: PKA IC50 (phosphorylation of histone)) [µM]	Structure (SMILES)
22	191	13	13	0	–	–	–	CCCCCCCCCCCCC(=O)N1CCCCC1CNC(=O)[C@@H](N)CCCCN (stereo partly shown) [2,6-diamino-N-([1-(1-oxotridecyl)-2-piperidinyl]methyl)hexan] [2,6-Diamino-N-([1-(1-oxotridecyl)-2-piperidinyl]methyl)hexanamide dihydrochloride]
–	–	44	–	0	9	–	–	CCCCCCCCCCCCC(=O)N1CCCCC1CNC(=O)[C@@H](N)CO (stereo partly shown) [2-Amino-3-hydroxy-N-([1-(1-oxotridecyl)-2-piperidinyl]methyl)propanamide hydrochloride]
–	–	18	–	0	–	–	–	CCCCCCCCCCCCC(=O)N1CCCCC1CNC(=O)[C@@H](N)CCCN (stereo partly shown) [2.5-Diamino-N-([1-(1-oxotridecyl)-2-piperidinyl]methyl)pentanamide dihydrochloride]
–	–	46	–	0	–	–	–	CCCCCCCCCCCC(=O)N1CCC[C@H]1CNC(=O)[C@@H](N)CCCCN [2.6-Diamino-N-([1-(1-oxododecyl)-2-pyrrolidinyl]methyl)hexanamide dihydrochloride]
–	–	36	–	0	45	139	–	CCCCCCCCCCCCC(=O)N1CCCCC1CNC(=O)CCN.O=C(O)/C=C/C(=O)O (stereo not shown) [3-Amino-N-([1-(1-oxotridecyl)-2-piperidinyl]methyl)propanamide fumarate]
–	–	9	–	–	–	–	28	CC1CNCCN1S(=O)(=O)c1cccc2cnccc12 (stereo not shown) [Example H-7, reference compound]
–	–	29	–	0	34	157	–	CCCCCCCCCCCCC(=O)N1CCCCC1CNC(=O)C1CCCNC1 (stereo not shown) [N-[([1-Oxotridecyl)-2-piperidinyl]methyl)amino]3-methyloxopiperidine hydrochloride]
